Where a SMILES comes first, the peptide text is derived from it. Bridges are numbered along the chain shown (N, C = ends). [ ]: non-standard residue; d: D form. The star is where a group is joined. Trp(5-CN) = N#Cc1ccc2[nH]cc(C[C@H](N)C(=O)O)c2c1; Phe(3-CF3) = N[C@@H](Cc1cccc(C(F)(F)F)c1)C(=O)O; Ala(morpholin-4-yl) = N[C@@H](CN1CCOCC1)C(=O)O; Phe(4-COOH) = N[C@@H](Cc1ccc(C(=O)O)cc1)C(=O)O; Bip = N[C@@H](Cc1ccc(-c2ccccc2)cc1)C(=O)O; Phe(3-Cl) = N[C@@H](Cc1cccc(Cl)c1)C(=O)O; Phe(3-Me) = Cc1cccc(C[C@H](N)C(=O)O)c1; Phe(4-Me) = Cc1ccc(C[C@H](N)C(=O)O)cc1; 2Pal = N[C@@H](Cc1ccccn1)C(=O)O; 4Pal = N[C@@H](Cc1ccncc1)C(=O)O; αMeE = C[C@](N)(CCC(=O)O)C(=O)O; Cha = N[C@@H](CC1CCCCC1)C(=O)O; Cit = NC(=O)NCCC[C@H](N)C(=O)O; Carboxymethyl = O=C(O)C*; Orn = NCCC[C@H](N)C(=O)O; Dab = NCC[C@H](N)C(=O)O; Dap = NC[C@H](N)C(=O)O; Ac3c = NC1(C(=O)O)CC1; X2 = Cc1cnc(CN*)cn1
molecular target: T1, human PD-1 / PD-L1-Ig binding on Jurkat cell line over-expressing human PD-1 (Jurkat-PD-1) (Homo sapiens, UniProt Q15116); assay: Jurkat-PD-1 Cell Binding High-Content Screening Assay (CBA); assay type: cell-based; conditions: Jurkat HPD1_PDL1 IC50, Jurkat-PD-1 cells, PE-labeled PD-L1-Ig 20 nM final
T1 construct: expressed in transfected cells; host or cells: Jurkat
How it was run: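 Jurkat-hPD-1 cells in DMEM with 10% fetal calf serum receive test compound and are held at 37° C for 2 h. PE-labeled PD-L1-Ig is added at 20 nM final and left for 1 hour. Cells are then fixed and Hoechst-stained, and binding is measured by imaging.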

T1 sequence (Q15116 25-288): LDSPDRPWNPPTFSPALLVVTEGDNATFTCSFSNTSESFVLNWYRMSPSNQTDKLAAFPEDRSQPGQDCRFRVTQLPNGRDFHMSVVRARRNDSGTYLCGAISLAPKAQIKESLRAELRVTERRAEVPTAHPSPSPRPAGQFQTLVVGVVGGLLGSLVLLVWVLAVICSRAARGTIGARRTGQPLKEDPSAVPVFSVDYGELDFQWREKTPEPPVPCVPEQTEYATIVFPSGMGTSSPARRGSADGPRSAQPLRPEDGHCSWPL

Structure (SMILES)	IC50
CC(C)C[C@@H]1NC(=O)[C@H](Cc2c[nH]c3ccccc23)NC(=O)[C@H](CC(=O)O)NC(=O)[C@H](Cc2ccc(OCC(=O)O)cc2)NC(=O)[C@H](CN)NC(=O)CSC[C@@H](C(=O)NCC(N)=O)NC(=O)[C@H](CO)NC(=O)[C@H](C(C)C)NC(=O)[C@H](CC(C)C)NC(=O)[C@H](CC(N)=O)NC(=O)[C@@H](CC(C)C)NC(=O)[C@H](CN)NC(=O)[C@H](C(C)C)NC(=O)[C@H](Cc2ccc(-c3ccccc3)cc2)NC1=O [Compound 1276] ({CH2CO}-[Dap]Y(Carboxymethyl)DWL[Bip]V[Dap][dL]NLVSCG-NH2; thioether N-14)	8.1 nM
CC(C)C[C@H]1NC(=O)[C@H](CCCN)NC(=O)[C@H](CCCCN)NC(=O)[C@H](Cc2ccc(-c3ccccc3)cc2)NC(=O)[C@H](C(C)C)NC(=O)[C@H](Cc2c[nH]c3ccccc23)NC(=O)[C@H](CC(=O)O)NC(=O)[C@H](Cc2ccc(OCC(=O)O)cc2)NC(=O)[C@H](Cc2ccncc2)NC(=O)CSC[C@@H](C(=O)N[C@@H](C)C(N)=O)NC(=O)[C@H]([C@@H](C)O)NC(=O)[C@H](C(C)C)NC(=O)[C@H](CC2CCCCC2)NC(=O)[C@H](CCN)NC1=O [Compound 1373]	11.1 nM

same assay, conditions: Jurkat-PD-1 cells, PE-labeled PD-L1-Ig 20 nM final; read-out: Jurkat HPD1_PDL1 IC50

Structure (SMILES)	IC50
Cc1cccc(C[C@@H]2NC(=O)[C@H](CC(=O)O)NC(=O)[C@H](Cc3ccc(OCC(=O)O)cc3)NC(=O)[C@H](CN)NC(=O)CSC[C@@H](C(=O)N[C@@H](C)C(=O)NCc3cnc(C)cn3)NC(=O)[C@H](CN)NC(=O)[C@H](C(C)C)NC(=O)[C@H](CC3CCCCC3)NC(=O)[C@H](CCN)NC(=O)[C@@H](CC(C)C)NC(=O)[C@H](CCCN)NC(=O)[C@H](CCCNC(N)=O)NC(=O)[C@H](Cc3ccc(-c4ccccc4)cc3)NC(=O)[C@H](C(C)C)NC2=O)c1 [Compound 2019] ({CH2CO}-[Dap]Y(Carboxymethyl)D[Phe(3-Me)]V[Bip][Cit][Orn][dL][Dab][Cha]V[Dap]CA-X2; thioether N-14)	12.8 nM
CC(C)C[C@H]1NC(=O)[C@H](CCCN)NC(=O)[C@H](Cc2ccc(C(=O)O)cc2)NC(=O)[C@H](Cc2ccc(-c3ccccc3)cc2)NC(=O)[C@H](Cc2c[nH]c3ccc(C#N)cc23)NC(=O)[C@H](Cc2cccc(C(F)(F)F)c2)NC(=O)[C@H](CC(=O)O)NC(=O)[C@H](Cc2ccc(C(=O)O)cc2)NC(=O)[C@H](CN2CCOCC2)NC(=O)CSC[C@@H](C(=O)N[C@@H](CCN)C(N)=O)NC(=O)[C@H](CCC(=O)O)NC(=O)[C@H](C(C)C)NC(=O)[C@H](CC2CCCCC2)NC(=O)[C@H](CCN)NC1=O [Example 2740] ({CH2CO}-[Ala(morpholin-4-yl)][Phe(4-COOH)]D[Phe(3-CF3)][Trp(5-CN)][Bip][Phe(4-COOH)][Orn][dL][Dab][Cha]VEC[Dab]-NH2; thioether N-14)	4.8 nM
Cc1cccc(C[C@@H]2NC(=O)[C@H](CC(=O)O)NC(=O)[C@H](Cc3ccc(OCC(=O)O)cc3)NC(=O)[C@H]([C@@H](C)O)NC(=O)CSC[C@@H](C(=O)NC3(C(N)=O)CC3)NC(=O)[C@H](CO)NC(=O)[C@H](C(C)C)NC(=O)[C@H](CC3CCCCC3)NC(=O)[C@H](CCN)NC(=O)[C@@H](CC(C)C)NC(=O)[C@H](CCCN)NC(=O)[C@H](Cc3ccc(OCC(=O)O)cc3)NC(=O)[C@H](Cc3ccc(-c4ccccc4)cc3)NC(=O)[C@H](Cc3ccc(OCC(=O)O)cc3)NC2=O)c1 [Compound 2065] ({CH2CO}-TY(Carboxymethyl)D[Phe(3-Me)]Y(Carboxymethyl)[Bip]Y(Carboxymethyl)[Orn][dL][Dab][Cha]VSC[Ac3c]-NH2; thioether N-14)	19.5 nM
CC(C)C[C@H]1NC(=O)[C@H](CCCN)NC(=O)[C@H](CCCNC(N)=O)NC(=O)[C@H](Cc2ccc(-c3ccccc3)cc2)NC(=O)[C@H](C(C)C)NC(=O)[C@H](Cc2c[nH]c3ccccc23)NC(=O)[C@H](CC(=O)O)NC(=O)[C@](C)(CCC(=O)O)NC(=O)[C@H](CN)NC(=O)CSC[C@@H](C(=O)N[C@@H](C)C(N)=O)NC(=O)[C@H]([C@@H](C)O)NC(=O)[C@H](C(C)C)NC(=O)[C@H](CC2CCCCC2)NC(=O)[C@H](CCN)NC1=O [Compound 2136] ({CH2CO}-[Dap][αMeE]DWV[Bip][Cit][Orn][dL][Dab][Cha]VTCA-NH2; thioether N-14)	814 nM

Continued, values first:

IC50	Structure (SMILES)
305 nM	Cc1ccc(C[C@@H]2NC(=O)[C@H](CCN)NC(=O)[C@@H](CC(C)C)NC(=O)[C@H](CCCN)NC(=O)[C@H](CCC(=O)O)NC(=O)[C@H](Cc3ccc(-c4ccccc4)cc3)NC(=O)[C@H](C(C)C)NC(=O)[C@H](Cc3c[nH]c4ccccc34)NC(=O)[C@H](CC(=O)O)NC(=O)[C@H](Cc3ccc(OCC(=O)O)cc3)NC(=O)[C@H](CN)NC(=O)CSC[C@@H](C(=O)N[C@@H](C)C(N)=O)NC(=O)[C@H]([C@@H](C)O)NC(=O)[C@H](C(C)C)NC2=O)cc1 [Compound 1471] ({CH2CO}-[Dap]Y(Carboxymethyl)DWV[Bip]E[Orn][dL][Dab][Phe(4-Me)]VTCA-NH2; thioether N-14)
27.9 nM	CC(C)C[C@H]1NC(=O)[C@H](CCCN)NC(=O)[C@H](CCC(=O)O)NC(=O)[C@H](Cc2ccc(-c3ccccc3)cc2)NC(=O)[C@H](C(C)C)NC(=O)[C@H](Cc2ccccn2)NC(=O)[C@H](CC(=O)O)NC(=O)[C@H](Cc2ccc(OCC(=O)O)cc2)NC(=O)[C@H](CN)NC(=O)CSC[C@@H](C(=O)N[C@@H](C)C(N)=O)NC(=O)[C@H]([C@@H](C)O)NC(=O)[C@H](C(C)C)NC(=O)[C@H](CC2CCCCC2)NC(=O)[C@H](CCN)NC1=O [Compound 2154] ({CH2CO}-[Dap]Y(Carboxymethyl)D[2Pal]V[Bip]E[Orn][dL][Dab][Cha]VTCA-NH2; thioether N-14)
16.8 nM	CC(C)C[C@H]1NC(=O)[C@H](CCCN)NC(=O)[C@H](CCC(=O)O)NC(=O)[C@H](Cc2ccc(-c3ccccc3)cc2)NC(=O)[C@H](C(C)C)NC(=O)[C@H](Cc2c[nH]c3ccccc23)NC(=O)[C@H](CC(=O)O)NC(=O)[C@H](Cc2ccc(OCC(=O)O)cc2)NC(=O)[C@H](CN)NC(=O)CSC[C@@H](C(=O)N[C@@H](C)C(N)=O)NC(=O)[C@H]([C@@H](C)O)NC(=O)[C@H](C(C)C)NC(=O)[C@H](CC2CCCCC2)NC(=O)[C@H](CCN)NC1=O [Compound 1425]
18.4 nM	CC(C)C[C@H]1NC(=O)[C@H](CCCN)NC(=O)[C@H](C(C)C)NC(=O)[C@H](Cc2ccc(-c3ccccc3)cc2)NC(=O)[C@H](C(C)C)NC(=O)[C@H](Cc2cccc(Cl)c2)NC(=O)[C@H](CC(=O)O)NC(=O)[C@H](Cc2ccncc2)NC(=O)[C@H](Cc2ccc(OCC(=O)O)cc2)NC(=O)CSC[C@@H](C(=O)N[C@@H](C)C(N)=O)NC(=O)[C@H]([C@@H](C)O)NC(=O)[C@H](C(C)C)NC(=O)[C@H](CC2CCCCC2)NC(=O)[C@H](CCN)NC1=O [Compound 1570] ({CH2CO}-Y(Carboxymethyl)[4Pal]D[Phe(3-Cl)]V[Bip]V[Orn][dL][Dab][Cha]VTCA-NH2; thioether N-14)
8.1 nM	Cc1cccc(C[C@@H]2NC(=O)[C@H](CC(=O)O)NC(=O)[C@H](Cc3ccncc3)NC(=O)[C@H](CN)NC(=O)CSC[C@@H](C(=O)N[C@@H](C)C(N)=O)NC(=O)[C@H]([C@@H](C)O)NC(=O)[C@H](C(C)C)NC(=O)[C@H](CC3CCCCC3)NC(=O)[C@H](CCN)NC(=O)[C@@H](CC(C)C)NC(=O)[C@H](CCCN)NC(=O)[C@H](CCC(=O)O)NC(=O)[C@H](Cc3ccc(-c4ccccc4)cc3)NC(=O)[C@H](C(C)C)NC2=O)c1 [Compound 1418] ({CH2CO}-[Dap][4Pal]D[Phe(3-Me)]V[Bip]E[Orn][dL][Dab][Cha]VTCA-NH2; thioether N-14)
4.5 nM	Cc1cccc(C[C@@H]2NC(=O)[C@H](CC(=O)O)NC(=O)[C@H](Cc3ccc(C(=O)O)cc3)NC(=O)[C@H](Cc3ccncc3)NC(=O)CSC[C@@H](C(=O)N[C@@H](C)C(N)=O)NC(=O)[C@H]([C@@H](C)O)NC(=O)[C@H](C(C)C)NC(=O)[C@H](CC3CCCCC3)NC(=O)[C@H](CCN)NC(=O)[C@@H](CC(C)C)NC(=O)[C@H](CCCN)NC(=O)[C@H](CCCNC(N)=O)NC(=O)[C@H](Cc3ccc(-c4ccccc4)cc3)NC(=O)[C@H](C(C)C)NC2=O)c1 [Compound 1190]
73.5 nM	CC(C)C[C@H]1NC(=O)[C@H](CCCN)NC(=O)[C@H](CCC(=O)O)NC(=O)[C@H](Cc2ccc(-c3ccccc3)cc2)NC(=O)[C@H](C(C)C)NC(=O)[C@H](Cc2c[nH]c3ccccc23)NC(=O)[C@H](CC(=O)O)NC(=O)[C@H](Cc2ccc(OCC(=O)O)cc2)NC(=O)[C@H](CN)NC(=O)CSC[C@@H](C(=O)N[C@@H](C)C(N)=O)NC(=O)[C@H]([C@@H](C)O)NC(=O)[C@H](C(C)C)NC(=O)[C@H](Cc2cccc(C(F)(F)F)c2)NC(=O)[C@H](CCN)NC1=O [Compound 1468] ({CH2CO}-[Dap]Y(Carboxymethyl)DWV[Bip]E[Orn][dL][Dab][Phe(3-CF3)]VTCA-NH2; thioether N-14)
18.4 nM	Cc1cccc(C[C@@H]2NC(=O)[C@H](CC(=O)O)NC(=O)[C@H](Cc3ccc(C(=O)O)cc3)NC(=O)[C@H](Cc3ccncc3)NC(=O)CSC[C@@H](C(=O)N[C@@H](C)C(N)=O)NC(=O)[C@H]([C@@H](C)O)NC(=O)[C@H](C(C)C)NC(=O)[C@H](CC3CCCCC3)NC(=O)[C@H](CCN)NC(=O)[C@@H](Cc3ccccc3)NC(=O)[C@H](CCCN)NC(=O)[C@H](CCC(=O)O)NC(=O)[C@H](Cc3ccc(-c4ccccc4)cc3)NC(=O)[C@H](C(C)C)NC2=O)c1 [Compound 1428] ({CH2CO}-[4Pal][Phe(4-COOH)]D[Phe(3-Me)]V[Bip]E[Orn][dF][Dab][Cha]VTCA-NH2; thioether N-14)
10 nM	CC(C)C[C@@H]1NC(=O)[C@H](Cc2c[nH]c3ccccc23)NC(=O)[C@H](CC(=O)O)NC(=O)[C@H](Cc2ccc(O)cc2)NC(=O)[C@H](Cc2ccccc2)NC(=O)CSC[C@@H](C(=O)NCC(N)=O)NC(=O)[C@H](CO)NC(=O)[C@H](C(C)C)NC(=O)[C@H](CC(C)C)NC(=O)[C@H](CCN)NC(=O)[C@@H](CC(C)C)NC(=O)[C@H](CCCN)NC(=O)[C@H](C(C)C)NC(=O)[C@H](Cc2ccc(-c3ccccc3)cc2)NC1=O [Compound 1073] ({CH2CO}-FYDWL[Bip]V[Orn][dL][Dab]LVSCG-NH2; thioether N-14)
